Source: PubChem BioAssay (NCI)
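Exposure lasted 48 hours, with cells grown in 96-well plates and compounds tested at five concentrations. GI50 = concentration required for 50% inhibition of growth. Definition used: TGI = concentration required for complete inhibition of growth.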

Experiments:
Assay in all cases: NCI-60 cell line screen, 48 h
[1] = tested on: SF-539 CNS
[2] = tested on: MCF7 breast
[3] = tested on: NCI-H226 lung
[4] = tested on: TK-10 renal
[5] = tested on: SK-OV-3 ovarian
[6] = tested on: BT-549 breast
[7] = tested on: OVCAR-5 ovarian
[8] = tested on: A549 NSCLC
[9] = tested on: SK-MEL-5 melanoma
[10] = tested on: UACC-62 melanoma

SMILES: Nc1nc(N)c2nc(CNc3ccc(C(=O)NC(CCNC(=O)c4ccccc4C(=O)O)C(=O)O)cc3)cnc2n1 (stereo unspecified)
- GI50 [1]: 0.0574 µM
- TGI [2]: > 100 µM
- TGI [3]: > 100 µM
- TGI [4]: > 100 µM
- TGI [5]: > 100 µM
- TGI [6]: > 100 µM
- GI50 [7]: 0.0863 µM
- TGI [7]: > 100 µM
- GI50 [8]: 0.0688 µM
- TGI [8]: > 100 µM
- GI50 [9]: 0.0853 µM
- TGI [9]: > 100 µM

SMILES: COc1cc(/C=C/c2ccc(S(N)(=O)=O)cc2)cc(OC)c1
- GI50 [1]: 18.8 µM
- TGI [1]: 46.2 µM
- TGI [2]: 75.1 µM
- GI50 [3]: 12.3 µM
- TGI [3]: 38.1 µM
- TGI [4]: 53.9 µM
- TGI [5]: 75.7 µM
- GI50 [6]: 10.7 µM
- TGI [6]: 41.1 µM
- GI50 [10]: 15.4 µM
- TGI [10]: 30.3 µM
- TGI [7]: > 100 µM
- GI50 [8]: 20.7 µM
- TGI [8]: 71.9 µM
- TGI [9]: 29.8 µM

SMILES: COc1ccc(N2C(=O)C(=O)C3(CCCCC3)C2=O)c(OC)c1OC
- TGI [1]: > 100 µM
- TGI [2]: > 100 µM
- TGI [3]: > 100 µM
- TGI [4]: > 100 µM
- TGI [5]: > 100 µM
- TGI [6]: > 100 µM
- TGI [10]: > 100 µM
- TGI [7]: > 100 µM
- TGI [8]: > 100 µM
- TGI [9]: > 100 µM

SMILES: Cc1csc2c(=O)n(COCc3ccccc3)c(=O)[nH]c12
- TGI [1]: > 100 µM
- TGI [2]: > 100 µM
- TGI [3]: > 100 µM
- TGI [4]: > 100 µM
- TGI [6]: > 100 µM
- TGI [7]: > 100 µM
- TGI [8]: > 100 µM
- TGI [9]: > 100 µM

SMILES: O=C1C=CC(=O)[C@H]2C3C=CC(C4C3C3(Cl)C(Cl)=C(Cl)[C@]4(Cl)C3(Cl)Cl)[C@@H]12 (stereo partly specified)
- TGI [1]: 17.9 µM
- TGI [2]: 13.4 µM
- TGI [3]: 23.5 µM
- TGI [4]: 30.5 µM
- TGI [5]: 27.3 µM
- TGI [6]: 19.2 µM
- TGI [10]: 21 µM
- TGI [7]: 19.7 µM
- TGI [8]: 16 µM
- TGI [9]: 15.3 µM

SMILES: O=C1c2c(F)c(F)c(F)c(F)c2SC2=Nc3cccc4cccc(c34)N12
- TGI [1]: 14 µM
- TGI [2]: 16 µM
- TGI [3]: 28.7 µM
- TGI [4]: 26.1 µM
- TGI [5]: 23.2 µM
- TGI [6]: 23.9 µM
- TGI [10]: 11 µM
- TGI [7]: 30.9 µM
- TGI [8]: 39.8 µM
- TGI [9]: 28.4 µM

SMILES: O=C(NCCCc1cn[nH]c(=O)n1)c1cccc2nc3ccccc3nc12
- TGI [1]: > 100 µM
- TGI [2]: > 100 µM
- TGI [3]: > 100 µM
- TGI [4]: > 100 µM
- TGI [5]: > 100 µM
- TGI [6]: > 100 µM
- TGI [10]: > 100 µM
- TGI [7]: > 100 µM
- TGI [8]: > 100 µM
- TGI [9]: > 100 µM

SMILES: O=C(CBr)NCCc1c[nH]c2ccccc12
- TGI [1]: 3.52 µM
- TGI [2]: 4.72 µM
- TGI [3]: 2.64 µM
- TGI [4]: 3.37 µM
- TGI [5]: 7.31 µM
- TGI [6]: 3.83 µM
- TGI [10]: 3.29 µM
- TGI [7]: 3.47 µM
- TGI [9]: 2.46 µM

SMILES: O=c1cc(NNc2cccc(F)c2)[nH]c(=S)[nH]1
- TGI [1]: > 100 µM
- TGI [2]: > 100 µM
- TGI [3]: > 100 µM
- TGI [4]: > 100 µM
- TGI [6]: > 100 µM
- TGI [7]: > 100 µM
- TGI [8]: > 100 µM
- TGI [9]: > 100 µM

SMILES: CCOC(=O)c1cc([N+](=O)[O-])cc([N+](=O)[O-])c1Sc1ncnc2nc[nH]c12
- TGI [1]: 15.7 µM
- TGI [2]: 4.08 µM
- TGI [3]: > 100 µM
- TGI [4]: 9.55 µM
- TGI [5]: 23.3 µM
- TGI [6]: 8.59 µM
- TGI [10]: 21.3 µM
- TGI [7]: 27.6 µM
- TGI [8]: 32.5 µM
- TGI [9]: 27.7 µM

SMILES: CC1(C)OC2OC(C(=O)c3ccccc3)C3OC(C)(C)OC3C2O1 (stereo unspecified)
- TGI [1]: > 100 µM
- TGI [2]: > 100 µM
- TGI [3]: > 100 µM
- TGI [4]: > 100 µM
- TGI [5]: > 100 µM
- TGI [6]: > 100 µM
- TGI [10]: > 100 µM
- TGI [7]: > 100 µM
- TGI [9]: > 100 µM

SMILES: Cc1cc2nc(CC(C(F)(F)F)C(F)(F)F)oc2cc1C
- TGI [1]: 7.66 µM
- TGI [2]: 24.1 µM
- TGI [3]: 4.81 µM
- TGI [4]: 39.7 µM
- TGI [5]: > 44.4 µM
- TGI [6]: 6.65 µM
- TGI [10]: 3.64 µM
- TGI [7]: 25.7 µM
- TGI [8]: 30.1 µM
- TGI [9]: 12.2 µM

SMILES: COc1ccc(Oc2nc3c(N)cc(C(F)(F)F)cc3nc2-c2ccccc2)cc1
- TGI [1]: > 100 µM
- TGI [2]: 23.8 µM
- TGI [3]: 35.7 µM
- TGI [4]: > 100 µM
- TGI [5]: 43.7 µM
- TGI [6]: > 100 µM
- TGI [10]: > 100 µM
- TGI [9]: > 100 µM

SMILES: COc1cc(O)c2c(=O)c(OC)c(-c3ccc(OC)c(OC)c3)oc2c1.[Sn]
- TGI [1]: > 100 µM
- GI50 [2]: > 100 µM
- TGI [2]: > 100 µM
- TGI [3]: > 100 µM
- TGI [4]: > 100 µM
- TGI [5]: > 100 µM
- TGI [6]: > 100 µM
- GI50 [10]: > 100 µM
- TGI [10]: > 100 µM
- GI50 [7]: > 100 µM
- TGI [7]: > 100 µM
- TGI [8]: > 100 µM
- GI50 [9]: 32.9 µM
- TGI [9]: > 100 µM

SMILES: CP(=O)(O)C(N)c1ccccc1 (stereo unspecified)
- TGI [2]: > 100 µM
- TGI [3]: > 100 µM
- TGI [4]: > 100 µM
- TGI [5]: > 100 µM
- TGI [6]: > 100 µM
- TGI [10]: > 100 µM
- TGI [7]: > 100 µM
- TGI [8]: > 100 µM
- TGI [9]: > 100 µM

SMILES: c1ccc(Sc2nc(Sc3ccccc3)nc(Sc3ccccc3)n2)cc1
- TGI [1]: > 100 µM
- TGI [2]: > 100 µM
- TGI [3]: 77.9 µM
- TGI [4]: > 100 µM
- TGI [5]: > 100 µM
- TGI [6]: > 100 µM
- TGI [10]: > 100 µM
- TGI [7]: > 100 µM
- TGI [8]: > 100 µM
- TGI [9]: > 100 µM

SMILES: O=C1c2ccccc2C(=O)c2c(NCC3CO3)cccc21 (stereo unspecified)
- TGI [1]: > 100 µM
- TGI [2]: 7.14 µM
- TGI [3]: > 100 µM
- TGI [4]: > 100 µM
- TGI [5]: > 100 µM
- TGI [6]: 66.8 µM
- TGI [10]: > 45.9 µM
- TGI [7]: > 100 µM
- TGI [8]: > 100 µM
- TGI [9]: > 95.7 µM

SMILES: NCCN(CCN)/[N+]([O-])=N/O
- TGI [1]: > 100 µM
- TGI [2]: > 100 µM
- TGI [3]: > 100 µM
- TGI [4]: > 100 µM
- TGI [5]: > 100 µM
- TGI [6]: > 100 µM
- TGI [10]: > 100 µM
- TGI [7]: > 100 µM
- TGI [8]: > 100 µM
- TGI [9]: > 100 µM

SMILES: CCC1OC2C(CC=C(C)C)=C3OC(C)(O)C(C)(CC)C(=O)C3=C3OC(=O)C=C1C32 (stereo unspecified)
- TGI [1]: 23.1 µM
- TGI [2]: > 100 µM
- TGI [3]: > 100 µM
- TGI [4]: > 100 µM
- TGI [5]: > 100 µM
- TGI [6]: 49.5 µM
- TGI [10]: 83.4 µM
- TGI [7]: > 100 µM
- TGI [8]: > 100 µM
- TGI [9]: 34.9 µM

SMILES: COc1c(C)c(C/C=C(\C)CCCCO)c(OC)c2ccccc12
- TGI [1]: > 100 µM
- TGI [2]: > 100 µM
- TGI [4]: > 100 µM
- TGI [5]: > 100 µM
- TGI [6]: > 100 µM
- TGI [10]: > 100 µM
- TGI [7]: > 100 µM
- TGI [8]: > 100 µM
- TGI [9]: 39.5 µM

SMILES: CN(C)C1(c2cc3ccccc3s2)CCCCC1
- TGI [1]: > 100 µM
- TGI [2]: > 100 µM
- TGI [3]: > 100 µM
- TGI [4]: > 100 µM
- TGI [5]: > 100 µM
- TGI [6]: > 100 µM
- TGI [10]: 60.6 µM
- TGI [7]: > 100 µM
- TGI [8]: > 100 µM
- TGI [9]: 33.3 µM
